Data reported in publication PMC8123576 (International Journal of Molecular Sciences, 2021).
Read-outs that look alike come from different tables or passages of the source.

Assays:
[1] = test system: aflatoxin accumulation by A. flavus; assay: microbe, parasite or virus in culture; assay type: cell-based, Aspergillus flavus; details: Aspergillus flavus
[2] = Cytotoxicity assay (CellTiter 96 AQueous One) on Crl1790; assay type: cell-based, human; details: human, Crl1790 (CCD 841 CoN) normal colon cells, Crl1790, 24 h, dose 0 = 100.00, read-out: Growth inhibition data
Method: (§1) The best antifungal and/or antiaflatoxigenic compounds were tested to determine their cytotoxic activity against human normal cell lines deriving from lung (HFL1, ATCC and CCL-153), skin (Hs27, ATCC, CRL1634) and colon (Crl1790, ATCC, CCD 841 CoN) and a cell line deriving from a hematological tumor (U937, ATCC and CRL-3253). These different cell lines have been chosen to simulate the different human exposition routes to pesticide. Cell culture conditions have been previously reported. Compound cytotoxicity was determined using CellTiter 96® AQueous One Solution Cell Proliferation Assay (Promega Corporation, Madison, WI, USA). The very detailed protocol was described by Bartoli et al.. In brief, cells were seeded in a 96-well plate at a density of 5000 cells/well and after 24 h cells were treated with different concentrations of the compounds (0.5–1–5–10–50–100 µM). After the treatment period (24 h), the CellTiter Reagent was added to each well (20 µL/well) and the plate incubated for 4 h at 37 °C. The plate was then read at 485 nm in a multiwell plate reader (TECAN SpectraFluor Plus, Männedorf, Switzerland).

Crl1790 cells = assay: as above; assay type: cell-based, human; details: Crl1790 cells, 24 h, only at the highest concentration (100 µM)
Method: as §1

A. cepa = A. cepa toxicity test (root length); assay type: in vivo, Allium cepa; details: for Roots Length: NC 2.07 ± 0.61
Method: A. cepa toxicity test: Twelve equal-sized young onion bulbs were exposed for 96 h in the dark to different concentrations of compounds dissolved in DMSO, changing the sample solution every day. […] Root macroscopic parameters such as turgescence, consistency, change in color and root tip shape, were used as toxicity indexes.

[3] = Cytotoxicity assay (CellTiter 96 AQueous One) on HFL1; assay type: cell-based, human; details: human, HFL1 normal lung cells, HFL1, 24 h, dose 0 = 100.00, read-out: Growth inhibition data
Method: as §1

HFL1 cells = assay: as above; assay type: cell-based, human; details: HFL1 cells, 24 h treatment
Method: as §1

S. typhimurium TA100 = details: for TA100 + S9 revertants/plate: NC 106.5 ± 11.9; for TA100 revertants/plate: NC 95.8 ± 5.5
S. typhimurium TA98 = details: for TA98 + S9 revertants/plate: NC 26.5 ± 5.4; for TA98 revertants/plate: NC 15.7 ± 4.9
[4] = Cytotoxicity assay (CellTiter 96 AQueous One) on Hs27; assay type: cell-based, human; details: human, Hs27 normal skin cells, Hs27, 24 h, dose 0 = 100.00, read-out: Growth inhibition data
Method: as §1

Hs27 cells = assay: as above; assay type: cell-based, human; details: Hs27 cells, 24 h treatment
Method: as §1

[5] = Cytotoxicity assay (CellTiter 96 AQueous One) on U937; assay type: cell-based, human; details: human, U937 cells (hematological tumor line), U937, 24 h, dose 0 = 100.00, read-out: Growth inhibition data
Method: as §1

U937 cells = assay: as above; assay type: cell-based, human; details: U937 cells, 24 h treatment
Method: as §1

A. cepa root cells = details: for MN (micronuclei frequency): NC 1.10 ± 1.28; for CA (aberrated cells / total cells in mitosis): NC 1.2
Method: To detect micronuclei and chromosomal aberrations six equal-sized pre-germinated young bulbs per sample were exposed for 24 h to sample dilutions. The bulbs dedicated to the micronuclei test underwent an additional treatment in the saline solution for 44 h of recovery time to cover two rounds of mitosis so that damage induced in chromosomes during mitosis to be visible as micronuclei in interphase cells. Then all the roots were fixed in acetic acid and ethanol (1:3) for 24 h and lastly stored in 70% ethanol. The negative control was DMSO in Rank’s solution (the dose of DMSO corresponding to volume of samples) and positive control was maleic hydrazide (10^−2 M, 6 h exposure). […] All experiments were performed in duplicate.

[6] = read-out: A.I. (%) (aflatoxin accumulation inhibition)

CC(=NNC(N)=S)c1cccs1 [2-actpTS, 2-acetylthiophenethiosemicarbazone]
inhibition at 50 µM [1, 6]: 58.3% | inhibition at 100 µM [1, 6]: 88.4% | inhibition at 10 µM ([1]; read-out: percentage of aflatoxin accumulation inhibition): 23% | viability at 24 h, 0.5 µM ([2]; 0.5 µM): 100 ± 3.63% | viability at 24 h, 1 µM ([2]; 1 µM): 95.1 ± 7.76% | viability at 24 h, 5 µM ([2]; 5 µM): 88.4 ± 2.25% | viability at 24 h, 10 µM ([2]; 10 µM): 89.1 ± 5.24% | viability at 24 h, 50 µM ([2]; 50 µM): 81.8 ± 3.48% | viability at 24 h, 100 µM ([2]; 100 µM): 62 ± 4.6% | cytotoxic activity (Crl1790 cells): mild cytotoxic activity | Roots Length (A. cepa; 10 µM): 2.17 ± 0.53 cm | Roots Length (A. cepa; 25 µM): 1.65 ± 0.43 cm | Roots Length (A. cepa; 50 µM): 1.68 ± 0.39 cm | Roots Length (A. cepa; 100 µM): 1.07 ± 0.23 cm | EC50 (A. cepa; Allium cepa, read-out: EC50 (50% A. cepa root growth inhibition), 96 h exposure): ~100 µM | viability at 24 h, 0.5 µM ([3]; 0.5 µM): 100 ± 11.1% | viability at 24 h, 1 µM ([3]; 1 µM): 100 ± 6.11% | viability at 24 h, 5 µM ([3]; 5 µM): 100 ± 5.74% | viability at 24 h, 10 µM ([3]; 10 µM): 100 ± 6.76% | viability at 24 h, 50 µM ([3]; 50 µM): 100 ± 4.53% | viability at 24 h, 100 µM ([3]; 100 µM): 92.5 ± 3.49% | 50% inhibition of cell proliferation (HFL1 cells): did not induce 50% inhibition of cell proliferation | TA100 + S9 MR (mutagenicity ratio) (S. typhimurium TA100; +S9, 0.1 µM/plate): 0.9 | TA100 + S9 revertants/plate (S. typhimurium TA100; +S9, 0.1 µM/plate): 98.0 ± 24.0 revertants/plate | TA100 + S9 MR (mutagenicity ratio) (S. typhimurium TA100; +S9, 1.0 µM/plate): 1.0 | TA100 + S9 revertants/plate (S. typhimurium TA100; +S9, 1.0 µM/plate): 104.0 ± 15.6 revertants/plate | TA100 + S9 MR (mutagenicity ratio) (S. typhimurium TA100; +S9, 10.0 µM/plate): 1.0 | TA100 + S9 revertants/plate (S. typhimurium TA100; +S9, 10.0 µM/plate): 107.5 ± 0.7 revertants/plate | TA100 + S9 MR (mutagenicity ratio) (S. typhimurium TA100; +S9, 50.0 µM/plate): 0.9 | TA100 + S9 revertants/plate (S. typhimurium TA100; +S9, 50.0 µM/plate): 90.5 ± 13.4 revertants/plate | TA100 + S9 MR (mutagenicity ratio) (S. typhimurium TA100; +S9, 100.0 µM/plate): 0.8 | TA100 + S9 revertants/plate (S. typhimurium TA100; +S9, 100.0 µM/plate): 88.0 ± 8.5 revertants/plate | TA100 MR (mutagenicity ratio) (S. typhimurium TA100; -S9, 0.1 µM/plate): 1.0 | TA100 revertants/plate (S. typhimurium TA100; -S9, 0.1 µM/plate): 92.0 ± 14.1 revertants/plate | TA100 MR (mutagenicity ratio) (S. typhimurium TA100; -S9, 1.0 µM/plate): 1.1 | TA100 revertants/plate (S. typhimurium TA100; -S9, 1.0 µM/plate): 101.5 ± 4.9 revertants/plate | TA100 MR (mutagenicity ratio) (S. typhimurium TA100; -S9, 10.0 µM/plate): 1.1 | TA100 revertants/plate (S. typhimurium TA100; -S9, 10.0 µM/plate): 104.5 ± 9.2 revertants/plate | TA100 MR (mutagenicity ratio) (S. typhimurium TA100; -S9, 50.0 µM/plate): 0.9 | TA100 revertants/plate (S. typhimurium TA100; -S9, 50.0 µM/plate): 87.5 ± 7.8 revertants/plate | TA100 MR (mutagenicity ratio) (S. typhimurium TA100; -S9, 100.0 µM/plate): 1.0 | TA100 revertants/plate (S. typhimurium TA100; -S9, 100.0 µM/plate): 99.5 ± 0.7 revertants/plate | TA98 + S9 MR (mutagenicity ratio) (S. typhimurium TA98; +S9, 0.1 µM/plate): 0.9 | TA98 + S9 revertants/plate (S. typhimurium TA98; +S9, 0.1 µM/plate): 25.0 ± 0.0 revertants/plate | TA98 + S9 MR (mutagenicity ratio) (S. typhimurium TA98; +S9, 1.0 µM/plate): 1.4 | TA98 + S9 revertants/plate (S. typhimurium TA98; +S9, 1.0 µM/plate): 37.0 ± 4.2 revertants/plate | TA98 + S9 MR (mutagenicity ratio) (S. typhimurium TA98; +S9, 10.0 µM/plate): 1.3 | TA98 + S9 revertants/plate (S. typhimurium TA98; +S9, 10.0 µM/plate): 34.0 ± 2.8 revertants/plate | TA98 + S9 MR (mutagenicity ratio) (S. typhimurium TA98; +S9, 50.0 µM/plate): 1.2 | TA98 + S9 revertants/plate (S. typhimurium TA98; +S9, 50.0 µM/plate): 31.5 ± 6.4 revertants/plate | TA98 + S9 MR (mutagenicity ratio) (S. typhimurium TA98; +S9, 100.0 µM/plate): 1.2 | TA98 + S9 revertants/plate (S. typhimurium TA98; +S9, 100.0 µM/plate): 32.0 ± 2.8 revertants/plate | TA98 MR (mutagenicity ratio) (S. typhimurium TA98; -S9, 0.1 µM/plate): 1.9 | TA98 revertants/plate (S. typhimurium TA98; -S9, 0.1 µM/plate): 29.5 ± 3.5 revertants/plate | TA98 MR (mutagenicity ratio) (S. typhimurium TA98; -S9, 1.0 µM/plate): 1.5 | TA98 revertants/plate (S. typhimurium TA98; -S9, 1.0 µM/plate): 23.5 ± 6.4 revertants/plate | TA98 MR (mutagenicity ratio) (S. typhimurium TA98; -S9, 10.0 µM/plate): 1.0 | TA98 revertants/plate (S. typhimurium TA98; -S9, 10.0 µM/plate): 16.0 ± 1.4 revertants/plate | TA98 MR (mutagenicity ratio) (S. typhimurium TA98; -S9, 50.0 µM/plate): 1.4 | TA98 revertants/plate (S. typhimurium TA98; -S9, 50.0 µM/plate): 22.5 ± 3.5 revertants/plate | TA98 MR (mutagenicity ratio) (S. typhimurium TA98; -S9, 100.0 µM/plate): 1.3 | TA98 revertants/plate (S. typhimurium TA98; -S9, 100.0 µM/plate): 21.0 ± 0.0 revertants/plate | viability at 24 h, 0.5 µM ([4]; 0.5 µM): 99.9 ± 7.65% | viability at 24 h, 1 µM ([4]; 1 µM): 97 ± 4.78% | viability at 24 h, 5 µM ([4]; 5 µM): 100 ± 5.97% | viability at 24 h, 10 µM ([4]; 10 µM): 97.7 ± 3.73% | viability at 24 h, 50 µM ([4]; 50 µM): 100 ± 9.25% | viability at 24 h, 100 µM ([4]; 100 µM): 87.3 ± 8.07% | cytotoxic effect (Hs27 cells): did not show cytotoxic effect | viability at 24 h, 0.5 µM ([5]; 0.5 µM): 100 ± 9.43% | viability at 24 h, 1 µM ([5]; 1 µM): 100 ± 4.23% | viability at 24 h, 5 µM ([5]; 5 µM): 100 ± 6.71% | viability at 24 h, 10 µM ([5]; 10 µM): 100 ± 7.06% | viability at 24 h, 50 µM ([5]; 50 µM): 100 ± 3.6% | viability at 24 h, 100 µM ([5]; 100 µM): 94.7 ± 8.15% | 50% inhibition of cell proliferation (U937 cells): did not induce 50% inhibition of cell proliferation | MN (micronuclei frequency) (A. cepa root cells; 10 µM): 1.20 ± 0.83% | CA (aberrated cells / total cells in mitosis) (A. cepa root cells; 10 µM): 2.7% | MN (micronuclei frequency) (A. cepa root cells; 25 µM): 1.40 ± 1.14% | CA (aberrated cells / total cells in mitosis) (A. cepa root cells; 25 µM): 4.7% | MN (micronuclei frequency) (A. cepa root cells; 50 µM): 2.00 ± 1.58% | CA (aberrated cells / total cells in mitosis) (A. cepa root cells; 50 µM): 6.3% | toxicity to roots in the micronuclei test (A. cepa root cells; 100 µM dose): highly toxic | CA (aberrated cells / total cells in mitosis) (A. cepa root cells; 100 µM): 6.0%
